Data: patent publication US20200157637A1, “TARGETING OF ANAPLASTIC LYMPHOMA KINASE IN SQUAMOUS CELL CARCINOMA” (BOARD OF REGENTS, THE UNIVERSITY OF TEXAS SYSTEM, priority 2017, published 2020)
Entries after “also recorded” stand apart in the source; their conditions may differ.

What was measured:
Cal27 cells = test: Flow cytometry cell cycle analysis (PI staining), Cal27; assay type: cell-based, Human; settings: 500 nM each, 30 hr
From the text: (§1) Flow cytometry. […] Cells were harvested, fixed in 70% EtoH, treated with RNase A, and stained with propidium iodide (PI).

[1] = tested on: EGFR signaling components in HSC3 cells; test: Western blot analysis of EGFR signaling components, HSC3; assay type: cell-based, Human; settings: 500 nM each, 6 h
From the text: (§2) Immunoblotting. […] SDS-PAGE separated proteins were transferred to PVDF membrane and the membrane blocked in 5% milk.

HSC3 mouse xenografts = test: OSCC mouse xenograft model (HSC3-derived tumors); assay type: in vivo
Experimental: OSCC mouse xenograft models. All studies were approved by the UTHSCSA institutional Animal Care and Use Committee. Six week-old female athymic nude mice (Harlan, Indianapolis, […].) were used in a laminar air-flow cabinet under pathogen-free conditions. Mice were provided with a 12 h light/dark schedule at controlled temperature and humidity with food and water ad libitum. Mice were acclimated for one week prior to study initiation. Mice were injected subcutaneously in the right flank with 3×10^6 HSC3 cells in 0.1 ml of sterile PBS. […] Treatments were repeated every day for a total of 14 days. Mice were monitored daily for tumor growth (using digital calipers), cachexia, and weight loss. Tumor volumes were calculated by the elliptical formula: ½ (Length×Width^2) (Jensen et al., 2008). At experimental conclusion, tumors were fixed and processed for histological analysis. Hematoxylin and eosin (H&E) staining and IHC studies were performed by the UTHSCSA Cancer Therapy and Research Center (CTRC) core pathology laboratory.

HSC3 cells [2] = test: Cell viability assay, HSC3; assay type: cell-based, Human; settings: 500 nM each, 48, 72 and 96 h
Experimental: (§3) Cell viability assays. Cytotoxicity was assessed using the Cell Titer 96 Aqueous Non-Radioactive Cell Proliferation Assay (Promega, Madison, Wis.) according to manufacturer's protocol. Absorbance values of test groups were normalized against controls (n=4).

[3] = tested on: EGFR signaling components in Ca127 cells; test: Western blot analysis of EGFR signaling components, Ca127; assay type: cell-based, Human; settings: 500 nM each, 6 h
From the text: as §2

HSC3 cells [4] = test: Flow cytometry cell cycle analysis (PI staining), HSC3; assay type: cell-based, Human; settings: 500 nM each, 30 hr
From the text: as §1

Ca127 cells [5] = test: Cell viability assay, Ca127; assay type: cell-based, Human; settings: 500 nM each, 48, 72 and 96 h
Experimental: as §3

oral cancer patients = settings: cited from earlier work
HSC3 cells [6] = test: Cell migration (IncuCyte wound-healing) assay, HSC3; assay type: cell-based, Human; settings: 500 nM each
Experimental: (§4) Cell migration assay. Cellular migration was performed using the IncuCyte ZOOM™ live cell image device (Essen Bioscience). After achieving cell confluence in 96-well format, the IncuCyte scratch system was used to generate simultaneous rectangular ‘wounds’ with a defined area in HSC3 and Ca127 cell layers. […] Images of cells moving within the wound area were taken by the automated Incu-Cyte system over intervals of 2 hr (HSC3) or 3 hr (Ca127). Migration was calculated as percent of cell confluence within the wound, starting at 0% confluence (i.e., no cells in the wound area). When the wound was completely filled with migrating cells, this was calculated at 100% confluence.

Ca127 cells [7] = test: Cell migration (IncuCyte wound-healing) assay, Ca127; assay type: cell-based, Human; settings: 500 nM each
Experimental: as §4

Question: For COc1cc(N2CCC(N3CCN(C)CC3)CC2)ccc1Nc1ncc(Cl)c(Nc2ccccc2S(=O)(=O)C(C)C)n1 [TAE684], which G1 (Cal27 cells) is on record?
Answer: 88.11 % of cell distribution

Question: What about the G2 (Cal27 cells) of the same compound?
Answer: 8.40 % of cell distribution

Question: What about the S (Cal27 cells) of the same compound?
Answer: 2.25 % of cell distribution

Question: And the SubG1 (Cal27 cells)?
Answer: 1.68 % of cell distribution

Question: What about the “activation of STAT3 (p-STAT3 to total STAT3) (in words)” value [1] of the same compound?
Answer: induced

Question: And the “phospho-AKT / AKT activation (in words)” value [1]?
Answer: significantly reduced

Question: And the “tumor growth (in words)” value (HSC3 mouse xenografts; daily oral gavage for 14 days, TAE684 10 mg/kg, Gefitinib 100 mg/kg)?
Answer: unaffected; also recorded: No change in tumor growth

Question: What about the mean tumor volume (HSC3 mouse xenografts; day 14, daily oral gavage, TAE684 10 mg/kg, Gefitinib 100 mg/kg, vehicle control 431 mm^3) of the same compound?
Answer: 381 mm^3

Question: What about the “cell growth (in words)” value (HSC3 cells [2]) of the same compound?
Answer: significant anti-proliferative effects

Question: And the “activation of STAT3 (p-STAT3 to total STAT3) (in words)” value [3]?
Answer: slightly induced

Question: And the “phospho-AKT / AKT activation (in words)” value [3]?
Answer: significantly decreased

Question: What about the G1 (HSC3 cells [4]) of the same compound?
Answer: 95.23 % of cell distribution

Question: What about the G2 (HSC3 cells [4]) of the same compound?
Answer: 3.73 % of cell distribution

Question: And the S (HSC3 cells [4])?
Answer: 0.84 % of cell distribution

Question: And the SubG1 (HSC3 cells [4])?
Answer: 0.34 % of cell distribution

Question: And the “cell growth (in words)” value (Ca127 cells [5])?
Answer: significant anti-proliferative effects

Question: What does the source list for C#Cc1cccc(Nc2ncnc3cc(OCCOC)c(OCCOC)cc23)c1 [Erlotinib]?
Answer: response rate (oral cancer patients; oral cancer patients with stage I disease): 10-15%; response (in words) (oral cancer patients; patients with stages II, III, and IV disease): failed to respond entirely

Question: With COc1cc2ncnc(Nc3ccc(F)c(Cl)c3)c2cc1OCCCN1CCOCC1 [Gefitinib] as the compound, how does the G1 (Cal27 cells) read?
Answer: 90.79 % of cell distribution

Question: And the G2 (Cal27 cells)?
Answer: 4.44 % of cell distribution

Question: And the S (Cal27 cells)?
Answer: 2.59 % of cell distribution

Question: What about the SubG1 (Cal27 cells) of the same compound?
Answer: 2.53 % of cell distribution

Question: And the “cell migration (in words)” value (HSC3 cells [6])?
Answer: significant reduction from 2 to 8 h

Question: What about the “cell migration (in words)” value (Ca127 cells [7]) of the same compound?
Answer: significantly reduced at 9 h and remained significantly low for 48 h

Question: And the “tumor volume compared to control” value (HSC3 mouse xenografts; day 6, Gefitinib 100 mg/kg daily, oral gavage)?
Answer: 57 % of control

Question: What about the “cell growth (in words)” value (HSC3 cells [2]) of the same compound?
Answer: significant anti-proliferative effects

Question: What about the G1 (HSC3 cells [4]) of the same compound?
Answer: 95.60 % of cell distribution

Question: What about the G2 (HSC3 cells [4]) of the same compound?
Answer: 1.87 % of cell distribution

Question: And the S (HSC3 cells [4])?
Answer: 0.0 % of cell distribution

Question: And the SubG1 (HSC3 cells [4])?
Answer: 2.03 % of cell distribution

Question: What about the “cell growth (in words)” value (Ca127 cells [5]) of the same compound?
Answer: significant anti-proliferative effects
